What was measured:
[1] = carboxylic acid as eliminated component; cited from earlier work
[2] = Evaluation of solubility (saturated solution after reflux and cooling to room temperature); format: physicochemical; conditions: refluxed 10 min, cooled to room temperature, left 16 hours, 0.2 μm PTFE filtered
Procedure: The mixture was further stirred for 1 hour and left to stand for 16 hours, and the supernatant was filtered using a 0.2 μm-PTFE filter, to thereby obtain a saturated solution. The saturated solution was dried under reduced pressure, and the solubility of the precursor in each solvent was calculated.

SMILES | Acidity [1] [pKa] | Solubility in THF [2] | Solubility in Anisole [2] | Solubility in Chloroform [2] | Solubility in Toluene [2]
O=C(O)CC(F)(F)F [3,3,3-trifluoropropionic acid] | 3.0 |  |  |  | 
O=C(CC(F)(F)F)OC1CCC(OC(=O)CC(F)(F)F)c2cc(-c3cc4sc(-c5ccc6c(c5)C(OC(=O)CC(F)(F)F)CCC6OC(=O)CC(F)(F)F)cc4s3)ccc21 (stereo not shown) [Compound 13] |  | A (the solubility is 0.5% by mass or more) | B (the solubility is 0.1% by mass or more to less than 0.5% by mass) | A (the solubility is 0.5% by mass or more) | A (the solubility is 0.5% by mass or more)
c1ccc2cc(-c3cc4sc(-c5ccc6ccccc6c5)cc4s3)ccc2c1 [Compound 17] |  | D (the solubility is less than 0.005% by mass) | D (the solubility is less than 0.005% by mass) | D (the solubility is less than 0.005% by mass) | D (the solubility is less than 0.005% by mass)
c1ccc2cc(-c3cc4cc5sc(-c6ccc7ccccc7c6)cc5cc4s3)ccc2c1 [Compound 18] |  | D (the solubility is less than 0.005% by mass) | D (the solubility is less than 0.005% by mass) | D (the solubility is less than 0.005% by mass) | D (the solubility is less than 0.005% by mass)
c1ccc2cc(-c3ccc4c(c3)sc3c5ccc(-c6ccc7ccccc7c6)cc5sc43)ccc2c1 [Compound 19] |  | D (the solubility is less than 0.005% by mass) | D (the solubility is less than 0.005% by mass) | D (the solubility is less than 0.005% by mass) | D (the solubility is less than 0.005% by mass)
CCCCCC(=O)O [caproic acid] | 4.6 |  |  |  | 
CC(C)(C)C(=O)O [pivalic acid] | 5.0 |  |  |  | 
CC(C)(C)C(=O)OC1CCC(OC(=O)C(C)(C)C)c2cc(-c3cc4sc(-c5ccc6c(c5)C(OC(=O)C(C)(C)C)CCC6OC(=O)C(C)(C)C)cc4s3)ccc21 (stereo not shown) [Compound 12] |  | A (the solubility is 0.5% by mass or more) | A (the solubility is 0.5% by mass or more) | A (the solubility is 0.5% by mass or more) | A (the solubility is 0.5% by mass or more)
O=C(CC(F)(F)F)OC1CCC(OC(=O)CC(F)(F)F)c2cc(-c3ccc4c(c3)sc3c5ccc(-c6ccc7c(c6)C(OC(=O)CC(F)(F)F)CCC7OC(=O)CC(F)(F)F)cc5sc43)ccc21 (stereo not shown) [Compound 16] |  | A (the solubility is 0.5% by mass or more) | B (the solubility is 0.1% by mass or more to less than 0.5% by mass) | A (the solubility is 0.5% by mass or more) | B (the solubility is 0.1% by mass or more to less than 0.5% by mass)
O=C(CC(F)(F)F)OC1CCC(OC(=O)CC(F)(F)F)c2cc(-c3cc4cc5sc(-c6ccc7c(c6)C(OC(=O)CC(F)(F)F)CCC7OC(=O)CC(F)(F)F)cc5cc4s3)ccc21 (stereo not shown) [Compound 14] |  | A (the solubility is 0.5% by mass or more) | A (the solubility is 0.5% by mass or more) | A (the solubility is 0.5% by mass or more) | B (the solubility is 0.1% by mass or more to less than 0.5% by mass)

Source: patent publication US9224959B2, “Method for producing a pi-electron conjugated compound” (Ricoh Company, Ltd., priority 2009, dated 2015)
